# Measured values as given in patent US20250270213A1, “PI3Ka INHIBITORS” (Synnovation Therapeutics, Inc., priority 2022, published 2025).
# Experiments:
# Format in all cases: cell-based
# [1] = system: SKBR3 (PIK3CA WT) cells; experiment: pS473 AKT assay, SKBR3 cells; settings: Homo sapiens, SK-BR-3, pSer473 AKT, complete medium with 10% fetal bovine serum, 2 h treatment, read-out: SKBR3_IC50
# Description: (§1) Example A. pS473 AKT Assay Protocol
# (§2) SKBR3 (PIK3CA WT), MCF7 (PIK3CA E545K), and T47D (PIK3CA H1047R) cells were cultured using 10-cm petri dishes with recommended medium plus 10% fetal bovine serum. One day before the assay, cells were seeded in 96-well plates at a final density of 10,000 cells per well. After overnight incubation in complete medium, cells were treated with different concentrations of PI3Kα inhibitors for 2 h. Cells were then fixed using 4% paraformaldehyde at room temperature for 20 min. Aspirate 4% paraformaldehyde, and wash cells using 1× regular phosphate buffered saline 3 times, 5 min each. Aspirate any residual phosphate buffered saline and block cells using 10% goat serum containing 1% bovine serum albumin and 0.3% Triton X-100 at room temperature for 1 h. Without any additional washing, primary antibodies (rabbit anti-pSer473 AKT) were diluted using blocking buffer and added at a final volume of 50 microliter per well. Keep assay plates with primary antibodies overnight at 4° C. Wash cells using 1× regular phosphate buffered saline 3 times, 5 min each. After the final wash, incubate cells with horseradish peroxidase-conjugated secondary antibodies (goat Anti-rabbit IgG) diluted using the same blocking buffer at room temperature for 1 h. Wash cells thoroughly using 1× regular phosphate buffered saline 3 times, 5 min each. Aspirate any residual phosphate buffered saline. Add Super-Signal ELISA Pico Chemiluminescent Substrate at a final volume of 100 microliter per well. Read plates on i3x Multi-Mode Microplate Reader and calculate IC50 values using GraphPad Prism software.
# [2] = system: MCF7 (PIK3CA E545K) cells; experiment: pS473 AKT assay, MCF7 cells; settings: Homo sapiens, pSer473 AKT, complete medium with 10% fetal bovine serum, 2 h treatment, read-out: MCF7_IC50
# Description: as §1, §2
# [3] = system: T47D (PIK3CA H1047R) cells; experiment: pS473 AKT assay, T47D cells; settings: Homo sapiens, pSer473 AKT, complete medium with 10% fetal bovine serum, 2 h treatment, read-out: T47D_IC50
# Description: as §1, §2
# [4] = system: T47D (PIK3CA H1047R) cells; experiment: pS473 AKT assay with 2.5% FBS, T47D cells; settings: Homo sapiens, pSer473 AKT, DMEM with 2.5% FBS, 2 h treatment, read-out: T47D_IC50
# How it was run: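 T47D (PIK3CA H1047R) cells were switched to DMEM with 2.5% FBS and exposed to compounds for 2 h. After paraformaldehyde fixation, pSer473 AKT was detected by in-cell ELISA (rabbit primary, HRP anti-rabbit secondary, chemiluminescence); IC50 values were fitted from the concentration series.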
Compound,IC50 [1] [µM],IC50 [2] [µM],IC50 [3] [µM],IC50 [4] [µM]
"Cc1cc(C(C)Nc2ccccc2C(=O)O)c2c(c1)c(=O)n(C)c1ccnn21 (stereo not drawn) [Compound I-1, 2-((1-(4,7-dimethyl-5-oxo-4,5-dihydropyrazolo[1,5-a]quinazolin-9-yl)ethyl)amino)benzoic acid]",> 30,> 30,1 to 5,–
"Cc1cc(C(C)Nc2ccccc2C(=O)O)c2c(c1)c(=O)n(C)c1c(-c3ccccc3)cnn21 (stereo not drawn) [Compound I-2, 2-((1-(4,7-dimethyl-5-oxo-3-phenyl-4,5-dihydropyrazolo[1,5-a]quinazolin-9-yl)ethyl)amino)benzoic acid]",> 30,> 30,1 to 5,–
"C=Cc1cnn2c3c(C(C)Nc4ccccc4C(=O)O)cc(C)cc3c(=O)n(C)c12 (stereo not drawn) [Compound I-3, 2-((1-(4,7-dimethyl-5-oxo-3-vinyl-4,5-dihydropyrazolo[1,5-a]quinazolin-9-yl)ethyl)amino)benzoic acid]",> 30,> 30,1 to 5,–
"Cc1cc(C(C)Nc2ccc(Cl)nc2-c2c[nH]nc2C)c2c(c1)c(=O)n1c3c2cnn3C(CO)CC1 (stereo not drawn) [Example 288, 10-(1-((6-chloro-2-(3-methyl-1H-pyrazol-4-yl)pyridin-3-yl)amino)ethyl)-3-(hydroxymethyl)-8-methyl-4,5-dihydro-3H,6H-2,2a,5a-triazaaceanthrylen-6-one]",–,–,–,< 1
"Cc1cc(C(C)Nc2ccc(Cl)nc2-c2ccc(=O)n(C)c2)c2c(c1)c(=O)n1c3c2cnn3C(CO)CC1 (stereo not drawn) [Example 289, 10-(1-((6-chloro-1′-methyl-6′-oxo-1′,6′-dihydro-[2,3′-bipyridin]-3-yl)amino)ethyl)-3-(hydroxymethyl)-8-methyl-4,5-dihydro-3H,6H-2,2a,5a-triazaaceanthrylen-6-one]",–,–,–,< 1
"Cc1cc(C(C)Nc2ccc(Cl)nc2-c2ncn(C)n2)c2c(c1)c(=O)n1c3c2cnn3C(CN(C)C)CC1 (stereo not drawn) [Example 290, 10-(1-((6-Chloro-2-(1-methyl-1H-1,2,4-triazol-3-yl)pyridin-3-yl)amino)ethyl)-3-((dimethylamino)methyl)-8-methyl-4,5-dihydro-3H,6H-2,2a,5a-triazaaceanthrylen-6-one]",–,–,–,< 1
